Source: patent publication US20250002548A1, “Wild Boar Cathelicidin Peptide Variants and Vectors Encoding the Same for Uses in Managing Coronavirus Infections” (Emory University, priority 2021, published 2025)
Square brackets hold non-standard residues; d marks the D form. Peptide text beside a SMILES is read from it.

How the values were obtained:
[1] = system: Vero E6 and HEK293T cells; conditions: administered over 48 hours
SARS-CoV-2 [2] = conditions: ratio of IC50 and TD50; SARS-CoV-2 vs Vero E6 cells
[3] = system: human red blood cells (RBCs)
SARS-CoV-2 [4] = system: SARS-CoV-2

## CC[C@@H](C)[C@@H](NC(=O)[C@H]1CCCN1C(=O)[C@H]1CCCN1C(=O)[C@H](NC(=O)[C@@H](Cc1c[nH]c2ccccc12)NC(=O)[C@@H](CCCCN)NC(=O)[C@@H](CC(C)C)NC(=O)[C@H](NC(=O)[C@@H](CCCCN)NC(=O)CNC(=O)[C@H](NC(=O)[C@@H](CCCCN)NC(=O)[C@@H](CCCCN)NC(=O)[C@@H](CC(C)C)NC(=O)[C@@H](CCCNC(=N)N)NC(=O)[C@@H](CCCCN)NC(=O)[C@@H](CCCNC(=N)N)NC(=O)[C@H](NC(=O)[C@@H](CCCCN)NC(=O)[C@@H](CCCCN)NC(=O)[C@@H](CCCNC(=N)N)NC(=O)[C@@H](CC(C)C)NC(=O)[C@@H](CCCNC(=N)N)NC(=O)[C@@H](CCCNC(=N)N)NC(=O)[C@@H](Cc1ccccc1)NC(=O)[C@@H](CCCNC(=N)N)NC(=O)CNC(=O)[C@H](N)C(C)C)[C@H](C)O)[C@H](C)CC)C(C)C)[C@H](C)CC)C(=O)N[C@@H](C(=O)NCC(=O)N[C@H](CO)C(=O)N[C@@H](C(=O)N1CCC[C@@H]1C(=O)N[C@H](CC(C)C)C(=O)NCC(=O)N[C@H](CO)C(=O)NCC(=O)O)[C@H](C)CC)C(C)C [D-Yongshi] (H-[dV]G[dR][dF][dR][dR][dL][dR][dK][dK][dT][dR][dK][dR][dL][dK][dK][dI]G[dK][dV][dL][dK][dW][dI][dP][dP][dI][dV]G[dS][dI][dP][dL]G[dS]G-OH)
[1]
  cytotoxicity: significantly increased cytotoxicity
SARS-CoV-2 [2]
  therapeutic index (TI): 1.64

## CC[C@H](C)[C@H](NC(=O)[C@H](CCCCN)NC(=O)[C@H](CCC(=O)O)NC(=O)[C@H](CCCCN)NC(=O)[C@H](CO)NC(=O)[C@H](CCCCN)NC(=O)[C@H](CCCNC(=N)N)NC(=O)[C@H](Cc1ccccc1)NC(=O)[C@H](Cc1ccccc1)NC(=O)[C@H](CC(=O)O)NC(=O)CNC(=O)[C@H](CC(C)C)NC(=O)[C@@H](N)CC(C)C)C(=O)NCC(=O)N[C@@H](CCCCN)C(=O)N[C@@H](CCC(=O)O)C(=O)N[C@@H](Cc1ccccc1)C(=O)N[C@@H](CCCCN)C(=O)N[C@@H](CCCNC(=N)N)C(=O)N[C@H](C(=O)N[C@H](C(=O)N[C@@H](CCC(N)=O)C(=O)N[C@@H](CCCNC(=N)N)C(=O)N[C@H](C(=O)N[C@@H](CCCCN)C(=O)N[C@@H](CC(=O)O)C(=O)N[C@@H](Cc1ccccc1)C(=O)N[C@@H](CC(C)C)C(=O)N[C@@H](CCCNC(=N)N)C(=O)N[C@@H](CC(N)=O)C(=O)N[C@@H](CC(C)C)C(=O)N[C@H](C(=O)N1CCC[C@H]1C(=O)N[C@@H](CCCNC(=N)N)C(=O)N[C@H](C(=O)N[C@@H](CCC(=O)O)C(=O)N[C@@H](CO)C(=O)O)[C@@H](C)O)C(C)C)[C@@H](C)CC)C(C)C)[C@@H](C)CC [LL-37, reference compound]
[3]
  hemolytic activity: significant hemolytic activity

## CC[C@H](C)[C@H](NC(=O)[C@H](CCCCN)NC(=O)[C@H](CCCCN)NC(=O)[C@H](CC(C)C)NC(=O)[C@H](CCCNC(=N)N)NC(=O)[C@H](CCCCN)NC(=O)[C@H](CCCNC(=N)N)NC(=O)[C@@H](NC(=O)[C@H](CCCCN)NC(=O)[C@H](CCCCN)NC(=O)[C@H](CCCNC(=N)N)NC(=O)[C@H](CC(C)C)NC(=O)[C@H](CCCNC(=N)N)NC(=O)[C@H](CCCNC(=N)N)NC(=O)[C@H](Cc1ccccc1)NC(=O)[C@H](CCCNC(=N)N)NC(=O)CNC(=O)[C@@H](N)C(C)C)[C@@H](C)O)C(=O)NCC(=O)N[C@@H](CCCCN)C(=O)N[C@H](C(=O)N[C@@H](CC(C)C)C(=O)N[C@@H](CCCCN)C(=O)N[C@@H](Cc1c[nH]c2ccccc12)C(=O)N[C@H](C(=O)N1CCC[C@H]1C(=O)N1CCC[C@H]1C(=O)N[C@H](C(=O)N[C@H](C(=O)NCC(=O)N[C@@H](CO)C(=O)N[C@H](C(=O)N1CCC[C@H]1C(=O)N[C@@H](CC(C)C)C(=O)NCC(=O)N[C@@H](CS)C(=O)NCC(=O)O)[C@@H](C)CC)C(C)C)[C@@H](C)CC)[C@@H](C)CC)C(C)C [PMAP-36R] (H-VGRFRRLRKKTRKRLKKIGKVLKWIPPIVGSIPLGCG-OH; N-terminus and C-terminus assumed)
SARS-CoV-2 [4]
  IC50: 12 µM
[3]
  hemolytic activity: significant hemolytic activity
[1]
  cytotoxicity: greater toxicity than LL-37

## CC[C@H](C)[C@H](NC(=O)[C@H](CCCCN)NC(=O)[C@H](CCCCN)NC(=O)[C@H](CC(C)C)NC(=O)[C@H](CCCNC(=N)N)NC(=O)[C@H](CCCCN)NC(=O)[C@H](CCCNC(=N)N)NC(=O)[C@@H](NC(=O)[C@H](CCCCN)NC(=O)[C@H](CCCCN)NC(=O)[C@H](CCCNC(=N)N)NC(=O)[C@H](CC(C)C)NC(=O)[C@H](CCCNC(=N)N)NC(=O)[C@H](CCCNC(=N)N)NC(=O)[C@H](Cc1ccccc1)NC(=O)[C@H](CCCNC(=N)N)NC(=O)CNC(=O)[C@@H](N)C(C)C)[C@@H](C)O)C(=O)NCC(=O)N[C@@H](CCCCN)C(=O)N[C@H](C(=O)N[C@@H](CC(C)C)C(=O)N[C@@H](CCCCN)C(=O)N[C@@H](Cc1c[nH]c2ccccc12)C(=O)N[C@H](C(=O)N1CCC[C@H]1C(=O)N1CCC[C@H]1C(=O)N[C@H](C(=O)N[C@H](C(=O)NCC(=O)N[C@@H](CO)C(=O)N[C@H](C(=O)N1CCC[C@H]1C(=O)N[C@@H](CC(C)C)C(=O)NCC(=O)N[C@@H](CO)C(=O)NCC(=O)O)[C@@H](C)CC)C(C)C)[C@@H](C)CC)[C@@H](C)CC)C(C)C [Yongshi] (H-VGRFRRLRKKTRKRLKKIGKVLKWIPPIVGSIPLGSG-OH)
[3]
  hemolytic activity: significantly reduced hemolytic activity
[1]
  cytotoxicity: decreased cytotoxicity compared to the parent PMAP-36R and LL-37
SARS-CoV-2 [2]
  therapeutic index (TI): 3.50
